Numbered stars: 1 amine (or outer) side, 2 acyl side, 3 side chain; on linkers, the order of the positions; unused ones are H or OH. Bridge positions count the residues as written; N and C are the ends. Square brackets hold non-standard residues; d marks the D form. Peptide text beside a SMILES is read from it. * marks the point of attachment. Bip(4'-COOH) = N[C@@H](Cc1ccc(-c2ccc(C(=O)O)cc2)cc1)C(=O)O; Bip(4'-NHAc) = CC(=O)Nc1ccc(-c2ccc(C[C@H](N)C(=O)O)cc2)cc1; Phe(3-OCH2COOH) = N[C@@H](Cc1cccc(OCC(=O)O)c1)C(=O)O; Phe(3-CF3) = N[C@@H](Cc1cccc(C(F)(F)F)c1)C(=O)O; Ala(morpholin-4-yl) = N[C@@H](CN1CCOCC1)C(=O)O; Phe(3-COOH) = N[C@@H](Cc1cccc(C(=O)O)c1)C(=O)O; Phe(4-CONH2) = NC(=O)c1ccc(C[C@H](N)C(=O)O)cc1; Phe(4-COOH) = N[C@@H](Cc1ccc(C(=O)O)cc1)C(=O)O; Bip = N[C@@H](Cc1ccc(-c2ccccc2)cc1)C(=O)O; Phe(3-Me) = Cc1cccc(C[C@H](N)C(=O)O)c1; Abu(3S-NH2) = C[C@H](N)[C@H](N)C(=O)O; Val(3-OH) = CC(C)(O)[C@H](N)C(=O)O; X11 = CC(N)[C@H](N[*:1])C(=O)[*:2]; Cha = N[C@@H](CC1CCCCC1)C(=O)O; NTA = O=C(O)CN(CC(=O)O)CC(=O)*; Carboxymethyl = O=C(O)C*; NMeA = CN[C@@H](C)C(=O)O; Nle = CCCC[C@H](N)C(=O)O; Orn = NCCC[C@H](N)C(=O)O; Dab = NCC[C@H](N)C(=O)O
Key:
[1] = target: T1, PE-labeled human PD-L1-Ig binding to Jurkat cell line over-expressing human PD-1 (Jurkat-PD-1) (Homo sapiens, UniProt Q15116); experiment: Jurkat-PD-1 Cell Binding High-Content Screening Assay (CBA): Method 1; conditions: Jurkat-PD-1 cells, PE-labeled PD-L1-Ig
T1 construct: expressed in transfected cells; host or cells: Jurkat
T1 sequence (Q15116 25-288): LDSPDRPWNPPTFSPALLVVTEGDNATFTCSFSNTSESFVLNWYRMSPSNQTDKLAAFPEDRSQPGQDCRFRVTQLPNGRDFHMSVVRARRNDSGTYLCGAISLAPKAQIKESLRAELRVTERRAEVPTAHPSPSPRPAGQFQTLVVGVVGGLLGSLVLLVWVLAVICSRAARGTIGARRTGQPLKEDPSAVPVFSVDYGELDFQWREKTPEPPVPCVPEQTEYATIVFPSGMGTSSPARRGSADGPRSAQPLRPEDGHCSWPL

[2] = target: T1, PE-labeled human PD-L1-Ig binding to Jurkat cell line over-expressing human PD-1 (Jurkat-PD-1); experiment: Jurkat-PD-1 Cell Binding High-Content Screening Assay (CBA): Method 2 (presence and absence of tween-20); conditions: Jurkat-PD-1 cells, PE-labeled PD-L1-Ig 20 nM, presence or absence of tween-20 not given
Description: Jurkat-PD-1 Cell Binding High-Content Screening Assay (CBA): Method 2
Phycoerythrin (PE) was covalently linked to the Ig epitope tag of human PD-L1-Ig and fluorescently labeled PD-L1-Ig was used for binding studies with a Jurkat cell line over-expressing human PD-1 (Jurkat-PD-1). […] 100 nl of compound was added to cells followed by incubation at 37° C. for 2 hours. To interrogate potential issues with compound aggregation, compounds were tested in the presence and absence of tween-20 detergent. […] Then, 5 μl of PE-labeled PD-L1-Ig (20 nM final), diluted in DMEM supplemented with 10% fetal calf serum. […] Data was collected and processed using a Cell Insight NXT High Content Imager and associated software.

[3] = head μM, read-out: CBA Method 2 μM

SMILES | IC50 ([1]; μM, read-out: CBA Method 1 μM) [µM] | IC50 [2, 3] [µM] | IC50 ([2]; nM, read-out: CBA Method 2) [µM] | IC50 ([1]; nM, read-out: CBA Method 1) [µM]
CC(C)C[C@@H]1NC(=O)[C@H](Cc2c[nH]c3ccccc23)NC(=O)[C@H](CC(N)=O)NC(=O)[C@H](Cc2cccc(C(=O)O)c2)NC(=O)[C@H](Cc2ccccc2)NC(=O)CSC[C@@H](C(=O)NCC(N)=O)NC(=O)[C@H](CO)NC(=O)[C@H](C(C)C)NC(=O)[C@H](CC(C)C)NC(=O)[C@H](CC(N)=O)NC(=O)[C@@H](CC(C)C)NC(=O)[C@H](C)N(C)C(=O)[C@H](C(C)C)NC(=O)[C@H](Cc2ccc(-c3ccccc3)cc2)NC1=O [Example 5026] ({CH2CO}-F[Phe(3-COOH)]NWL[Bip]V[NMeA][dL]NLVSCG-NH2; thioether N-14) | 0.12 | 0.12 |  | 
CC(C)C[C@H]1NC(=O)[C@H](C)N(C)C(=O)[C@H](CCC(N)=O)NC(=O)[C@H](Cc2ccc(-c3ccccc3)cc2)NC(=O)[C@H](Cc2ccc(C(=O)O)cc2)NC(=O)[C@H](Cc2cccc(C(F)(F)F)c2)NC(=O)[C@H](CCNC(=O)CN(CC(=O)O)CC(=O)O)NC(=O)[C@H](Cc2ccc(C(=O)O)cc2)NC(=O)[C@H](CN2CCOCC2)NC(=O)CSC[C@@H](C(=O)N[C@@H](CCN)C(N)=O)NC(=O)[C@H](CCCN)NC(=O)[C@H](C(C)C)NC(=O)[C@H](CC2CCCCC2)NC(=O)[C@H](CCN)NC1=O [Example 5076] ({CH2CO}-[Ala(morpholin-4-yl)][Phe(4-COOH)][Dab](NTA)[Phe(3-CF3)][Phe(4-COOH)][Bip]Q[NMeA][dL][Dab][Cha]V[Orn]C[Dab]-NH2; thioether N-14) | 0.463 | 0.111 |  | 
Cc1cccc(C[C@@H]2NC(=O)[C@H](CC(=O)O)NC(=O)[C@H](Cc3ccc(OCC(=O)O)cc3)NC(=O)[C@H](C(C)N)NC(=O)CSC[C@@H](C(=O)N[C@@H](CCN)C(N)=O)NC(=O)[C@H](CO)NC(=O)[C@H](C(C)(C)O)NC(=O)[C@H](CC3CCCCC3)NC(=O)[C@H](CCN)NC(=O)[C@@H](CC(C)C)NC(=O)[C@H](C)N(C)C(=O)[C@H](Cc3ccc(C(N)=O)cc3)NC(=O)[C@H](Cc3ccc(-c4ccccc4)cc3)NC(=O)[C@H](Cc3ccc(OCC(=O)O)cc3)NC2=O)c1 (stereo partly drawn) [Example 5066] ({CH2CO}-[X11]Y(Carboxymethyl)D[Phe(3-Me)]Y(Carboxymethyl)[Bip][Phe(4-CONH2)][NMeA][dL][Dab][Cha][Val(3-OH)]SC[Dab]-NH2; thioether N-14) | 0.0304 | 0.0028 |  | 
CCCC[C@@H]1NC(=O)CSC[C@@H](C(=O)N[C@@H](CCN)C(N)=O)NC(=O)[C@H](CCC(=O)O)NC(=O)[C@H](C(C)C)NC(=O)[C@H](CC2CCCCC2)NC(=O)[C@H](CCN)NC(=O)[C@@H](CC(C)C)NC(=O)[C@H](C)N(C)C(=O)[C@H](CCCN)NC(=O)[C@H](Cc2ccc(-c3ccccc3)cc2)NC(=O)[C@H](Cc2ccc(-c3ccc(C(=O)O)cc3)cc2)NC(=O)[C@H](Cc2cccc(C(F)(F)F)c2)NC(=O)[C@H](CC(=O)O)NC(=O)[C@H](Cc2ccc(-c3ccc(C(=O)O)cc3)cc2)NC1=O [Example 5089] ({CH2CO}-[Nle][Bip(4'-COOH)]D[Phe(3-CF3)][Bip(4'-COOH)][Bip][Orn][NMeA][dL][Dab][Cha]VEC[Dab]-NH2; thioether N-14) | 0.01 | 0.11 |  | 
CCCC[C@@H]1NC(=O)CSC[C@@H](C(=O)N[C@@H](CCN)C(N)=O)NC(=O)[C@H](CC(N)=O)NC(=O)[C@H](C(C)C)NC(=O)[C@H](CC2CCCCC2)NC(=O)[C@H](CCN)NC(=O)[C@@H](CC(C)C)NC(=O)[C@H](C)N(C)C(=O)[C@H](CCCN)NC(=O)[C@H](Cc2ccc(-c3ccccc3)cc2)NC(=O)[C@H](Cc2ccc(-c3ccc(C(=O)O)cc3)cc2)NC(=O)[C@H](Cc2cccc(C(F)(F)F)c2)NC(=O)[C@H](CC(=O)O)NC(=O)[C@H](Cc2ccc(-c3ccc(C(=O)O)cc3)cc2)NC1=O [Example 5090] ({CH2CO}-[Nle][Bip(4'-COOH)]D[Phe(3-CF3)][Bip(4'-COOH)][Bip][Orn][NMeA][dL][Dab][Cha]VNC[Dab]-NH2; thioether N-14) | 0.01 |  | 0.0087 | 
CC(C)C[C@@H]1NC(=O)[C@H](Cc2c[nH]c3ccccc23)NC(=O)[C@H](CC(N)=O)NC(=O)[C@H](Cc2cccc(OCC(=O)O)c2)NC(=O)[C@H](Cc2ccccc2)NC(=O)CSC[C@@H](C(=O)NCC(N)=O)NC(=O)[C@H](CO)NC(=O)[C@H](C(C)C)NC(=O)[C@H](CC(C)C)NC(=O)[C@H](CC(N)=O)NC(=O)[C@@H](CC(C)C)NC(=O)[C@H](C)N(C)C(=O)[C@H](C(C)C)NC(=O)[C@H](Cc2ccc(-c3ccccc3)cc2)NC1=O [Example 5032] ({CH2CO}-F[Phe(3-OCH2COOH)]NWL[Bip]V[NMeA][dL]NLVSCG-NH2; thioether N-14) | 0.0987 | 0.108 |  | 
CC(=O)Nc1ccc(-c2ccc(C[C@@H]3NC(=O)[C@H](Cc4cccc(C)c4)NC(=O)[C@H](CC(=O)O)NC(=O)[C@H](Cc4ccc(C(=O)O)cc4)NC(=O)[C@H]([C@H](C)N)NC(=O)CSC[C@@H](C(=O)N[C@@H](CCN)C(N)=O)NC(=O)[C@H](CCCN)NC(=O)[C@H](C(C)C)NC(=O)[C@H](CC4CCCCC4)NC(=O)[C@H](CCN)NC(=O)[C@@H](CC(C)C)NC(=O)[C@H](C)N(C)C(=O)[C@H](CCC(N)=O)NC(=O)[C@H](Cc4ccc(-c5ccccc5)cc4)NC3=O)cc2)cc1 [Example 5051] ({CH2CO}-[Abu(3S-NH2)][Phe(4-COOH)]D[Phe(3-Me)][Bip(4'-NHAc)][Bip]Q[NMeA][dL][Dab][Cha]V[Orn]C[Dab]-NH2; thioether N-14) | 0.0032 | 0.0021 |  | 
CC(C)C[C@@H]1NC(=O)[C@H](Cc2c[nH]c3ccccc23)NC(=O)[C@H](CC(N)=O)NC(=O)[C@H](Cc2ccc(O)cc2)NC(=O)[C@H](Cc2ccccc2)NC(=O)CSC[C@@H](C(=O)NCC(N)=O)NC(=O)[C@H](CO)NC(=O)[C@H](C(C)C)NC(=O)[C@H](CC(C)C)NC(=O)[C@H](CC(N)=O)NC(=O)[C@@H](CC(C)C)NC(=O)[C@H](C)N(C)C(=O)[C@H](C(C)C)NC(=O)[C@H](Cc2ccc(-c3ccccc3)cc2)NC1=O [Example 5025] ({CH2CO}-FYNWL[Bip]V[NMeA][dL]NLVSCG-NH2; thioether N-14) | 0.31 | 0.56 |  | 
CC(=O)Nc1ccc(-c2ccc(C[C@@H]3NC(=O)[C@H](Cc4cccc(C)c4)NC(=O)[C@H](CC(=O)O)NC(=O)[C@H](Cc4ccc(C(=O)O)cc4)NC(=O)[C@H](CC(C)C)NC(=O)CSC[C@@H](C(=O)N[C@@H](CCN)C(N)=O)NC(=O)[C@H](CCCN)NC(=O)[C@H](C(C)C)NC(=O)[C@H](CC4CCCCC4)NC(=O)[C@H](CCN)NC(=O)[C@@H](CC(C)C)NC(=O)[C@H](C)N(C)C(=O)[C@H](CCC(N)=O)NC(=O)[C@H](Cc4ccc(-c5ccccc5)cc4)NC3=O)cc2)cc1 [Example 5054] ({CH2CO}-L[Phe(4-COOH)]D[Phe(3-Me)][Bip(4'-NHAc)][Bip]Q[NMeA][dL][Dab][Cha]V[Orn]C[Dab]-NH2; thioether N-14) | 0.0053 | 0.0057 |  | 
CC(=O)Nc1ccc(-c2ccc(C[C@@H]3NC(=O)[C@H](Cc4cccc(C(F)(F)F)c4)NC(=O)[C@H](CC(=O)O)NC(=O)[C@H](Cc4ccc(C(=O)O)cc4)NC(=O)[C@H](CC(C)C)NC(=O)CSC[C@@H](C(=O)N[C@@H](CCN)C(N)=O)NC(=O)[C@H](CCCN)NC(=O)[C@H](C(C)C)NC(=O)[C@H](CC4CCCCC4)NC(=O)[C@H](CCN)NC(=O)[C@@H](CC(C)C)NC(=O)[C@H](C)N(C)C(=O)[C@H](CCC(N)=O)NC(=O)[C@H](Cc4ccc(-c5ccccc5)cc4)NC3=O)cc2)cc1 [Example 5053] ({CH2CO}-L[Phe(4-COOH)]D[Phe(3-CF3)][Bip(4'-NHAc)][Bip]Q[NMeA][dL][Dab][Cha]V[Orn]C[Dab]-NH2; thioether N-14) | 0.009 | 0.0074 |  | 
CC(C)C[C@H]1NC(=O)[C@H](C)N(C)C(=O)[C@H](CCC(N)=O)NC(=O)[C@H](Cc2ccc(-c3ccccc3)cc2)NC(=O)[C@H](Cc2ccc(C(=O)O)cc2)NC(=O)[C@H](Cc2cccc(C(F)(F)F)c2)NC(=O)[C@H](CC(=O)O)NC(=O)[C@H](Cc2ccc(OCC(=O)O)cc2)NC(=O)[C@H](CN2CCOCC2)NC(=O)CSC[C@@H](C(=O)N[C@@H](CCN)C(N)=O)NC(=O)[C@H](CCCN)NC(=O)[C@H](C(C)C)NC(=O)[C@H](CC2CCCCC2)NC(=O)[C@H](CCN)NC1=O [Example 5014] ({CH2CO}-[Ala(morpholin-4-yl)]Y(Carboxymethyl)D[Phe(3-CF3)][Phe(4-COOH)][Bip]Q[NMeA][dL][Dab][Cha]V[Orn]C[Dab]-NH2; thioether N-14) | 0.17 | 0.04 |  | 
CC(C)C[C@H]1NC(=O)[C@H](C)N(C)C(=O)[C@H](CCC(N)=O)NC(=O)[C@H](Cc2ccc(-c3ccccc3)cc2)NC(=O)[C@H](Cc2ccc(C(=O)O)cc2)NC(=O)[C@H](Cc2cccc(C(F)(F)F)c2)NC(=O)[C@H](CC(=O)O)NC(=O)[C@H](Cc2ccc(OCC(=O)O)cc2)NC(=O)[C@H](CN2CCOCC2)NC(=O)CSC[C@@H](C(=O)N[C@@H](CCN)C(N)=O)NC(=O)[C@H](CCCN)NC(=O)[C@H](C(C)C)NC(=O)[C@H](CC2CCCCC2)NC(=O)[C@H](CCN)NC1=O [Example 5013] ({CH2CO}-[Ala(morpholin-4-yl)]Y(Carboxymethyl)D[Phe(3-CF3)][Phe(4-COOH)][Bip]Q[NMeA][dL][Dab][Cha]V[Orn]C[Dab]-NH2; thioether N-14) |  |  | 0.004 | 0.011

— US20240409585A1, “MACROCYCLIC IMMUNOMODULATORS” (priority 2021, published 2024)
